Source: publication PMC4076210, “Discovery of Novel AKT Inhibitors with Enhanced Anti-Tumor Effects in Combination with the MEK Inhibitor” (PLoS ONE, 2014)
Read-outs that look alike come from different tables or passages of the source.

Tests used:
Assay in all cases: Kinase panel
Type in all cases: biochemical
WNK2(h) = biological target: T1, WNK2(h) (Homo sapiens, UniProt Q9Y3S1)
T1 construct: purchased Millipore KinaseProfiler

GCK(h) = biological target: T2, GCK(h) (Homo sapiens, UniProt Q12851)
T2 construct: purchased Millipore KinaseProfiler
T2 sequence (Q12851 1-820): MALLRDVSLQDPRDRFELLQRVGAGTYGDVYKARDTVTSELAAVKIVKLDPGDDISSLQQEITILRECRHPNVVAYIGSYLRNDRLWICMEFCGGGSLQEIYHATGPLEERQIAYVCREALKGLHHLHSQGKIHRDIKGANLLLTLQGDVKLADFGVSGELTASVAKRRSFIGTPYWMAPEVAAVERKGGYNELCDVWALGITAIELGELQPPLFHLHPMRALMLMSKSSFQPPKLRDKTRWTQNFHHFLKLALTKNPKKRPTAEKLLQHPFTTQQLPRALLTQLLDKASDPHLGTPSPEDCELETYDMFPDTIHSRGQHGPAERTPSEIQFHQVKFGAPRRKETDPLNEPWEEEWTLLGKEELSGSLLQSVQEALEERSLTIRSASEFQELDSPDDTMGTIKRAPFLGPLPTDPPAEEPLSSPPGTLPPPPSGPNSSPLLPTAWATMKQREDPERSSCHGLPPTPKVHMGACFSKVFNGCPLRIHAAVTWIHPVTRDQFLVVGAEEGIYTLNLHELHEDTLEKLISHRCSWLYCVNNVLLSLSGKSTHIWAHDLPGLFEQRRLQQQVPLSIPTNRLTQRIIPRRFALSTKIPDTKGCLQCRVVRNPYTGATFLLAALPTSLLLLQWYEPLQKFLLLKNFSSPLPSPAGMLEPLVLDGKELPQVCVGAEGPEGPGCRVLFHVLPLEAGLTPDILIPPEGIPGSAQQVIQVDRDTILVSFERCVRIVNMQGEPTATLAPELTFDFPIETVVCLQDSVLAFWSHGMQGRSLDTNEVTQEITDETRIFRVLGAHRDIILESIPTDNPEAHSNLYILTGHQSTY

Arg(h) = biological target: T3, Arg(h) (Homo sapiens, UniProt P42684)
T3 construct: purchased Millipore KinaseProfiler

PKD2(h) = biological target: T4, PKD2(h) (Homo sapiens, UniProt Q9BZL6)
T4 construct: purchased Millipore KinaseProfiler
T4 sequence (Q9BZL6 1-878): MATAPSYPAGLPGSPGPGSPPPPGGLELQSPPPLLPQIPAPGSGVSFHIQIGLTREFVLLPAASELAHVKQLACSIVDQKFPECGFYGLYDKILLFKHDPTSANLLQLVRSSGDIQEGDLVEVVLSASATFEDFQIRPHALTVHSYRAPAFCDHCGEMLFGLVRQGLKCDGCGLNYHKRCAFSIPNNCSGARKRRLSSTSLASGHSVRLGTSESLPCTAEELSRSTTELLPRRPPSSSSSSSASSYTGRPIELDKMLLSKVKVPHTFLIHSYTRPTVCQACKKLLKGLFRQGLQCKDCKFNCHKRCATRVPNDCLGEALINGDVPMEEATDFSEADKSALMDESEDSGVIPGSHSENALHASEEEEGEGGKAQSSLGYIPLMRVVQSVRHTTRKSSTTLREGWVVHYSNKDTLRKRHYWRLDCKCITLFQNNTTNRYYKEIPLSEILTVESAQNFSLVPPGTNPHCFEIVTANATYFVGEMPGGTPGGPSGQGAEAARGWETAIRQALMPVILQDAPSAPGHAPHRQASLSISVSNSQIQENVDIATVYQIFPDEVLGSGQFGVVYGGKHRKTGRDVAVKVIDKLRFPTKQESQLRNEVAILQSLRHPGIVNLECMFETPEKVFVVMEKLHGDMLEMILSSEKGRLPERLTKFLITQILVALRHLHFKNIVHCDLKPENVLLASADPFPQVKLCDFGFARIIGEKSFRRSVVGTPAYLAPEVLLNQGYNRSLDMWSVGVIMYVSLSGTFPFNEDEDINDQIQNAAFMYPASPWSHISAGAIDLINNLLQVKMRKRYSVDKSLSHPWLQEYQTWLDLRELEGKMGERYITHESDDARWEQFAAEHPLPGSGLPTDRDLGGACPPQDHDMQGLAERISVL

PKA(h) = biological target: T5, PKA(h) (Homo sapiens, UniProt P17612)
T5 construct: purchased Millipore KinaseProfiler

CaMKIV(h) = biological target: T6, CaMKIV(h) (Homo sapiens, UniProt Q16566)
T6 construct: purchased Millipore KinaseProfiler
T6 sequence (Q16566 1-473): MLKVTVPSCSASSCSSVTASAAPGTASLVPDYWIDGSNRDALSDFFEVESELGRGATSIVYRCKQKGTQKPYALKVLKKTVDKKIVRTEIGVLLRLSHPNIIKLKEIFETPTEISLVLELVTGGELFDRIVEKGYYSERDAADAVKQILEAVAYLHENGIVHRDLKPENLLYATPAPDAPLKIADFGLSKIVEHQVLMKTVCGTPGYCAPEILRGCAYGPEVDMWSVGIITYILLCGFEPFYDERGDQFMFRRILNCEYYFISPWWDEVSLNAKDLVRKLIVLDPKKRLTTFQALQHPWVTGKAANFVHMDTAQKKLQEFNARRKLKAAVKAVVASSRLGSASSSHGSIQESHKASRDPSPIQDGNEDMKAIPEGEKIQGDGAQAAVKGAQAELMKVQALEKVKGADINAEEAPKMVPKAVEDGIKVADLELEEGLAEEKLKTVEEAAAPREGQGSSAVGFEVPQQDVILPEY

FAK(h) = biological target: T7, FAK(h) (Homo sapiens, UniProt Q05397)
T7 construct: purchased Millipore KinaseProfiler

cKit(D816V)(h) = biological target: T8, cKit(D816V)(h) (Homo sapiens, UniProt P10721, D816V)
T8 construct: purchased Millipore KinaseProfiler
T8 sequence (P10721 26-976 D816V): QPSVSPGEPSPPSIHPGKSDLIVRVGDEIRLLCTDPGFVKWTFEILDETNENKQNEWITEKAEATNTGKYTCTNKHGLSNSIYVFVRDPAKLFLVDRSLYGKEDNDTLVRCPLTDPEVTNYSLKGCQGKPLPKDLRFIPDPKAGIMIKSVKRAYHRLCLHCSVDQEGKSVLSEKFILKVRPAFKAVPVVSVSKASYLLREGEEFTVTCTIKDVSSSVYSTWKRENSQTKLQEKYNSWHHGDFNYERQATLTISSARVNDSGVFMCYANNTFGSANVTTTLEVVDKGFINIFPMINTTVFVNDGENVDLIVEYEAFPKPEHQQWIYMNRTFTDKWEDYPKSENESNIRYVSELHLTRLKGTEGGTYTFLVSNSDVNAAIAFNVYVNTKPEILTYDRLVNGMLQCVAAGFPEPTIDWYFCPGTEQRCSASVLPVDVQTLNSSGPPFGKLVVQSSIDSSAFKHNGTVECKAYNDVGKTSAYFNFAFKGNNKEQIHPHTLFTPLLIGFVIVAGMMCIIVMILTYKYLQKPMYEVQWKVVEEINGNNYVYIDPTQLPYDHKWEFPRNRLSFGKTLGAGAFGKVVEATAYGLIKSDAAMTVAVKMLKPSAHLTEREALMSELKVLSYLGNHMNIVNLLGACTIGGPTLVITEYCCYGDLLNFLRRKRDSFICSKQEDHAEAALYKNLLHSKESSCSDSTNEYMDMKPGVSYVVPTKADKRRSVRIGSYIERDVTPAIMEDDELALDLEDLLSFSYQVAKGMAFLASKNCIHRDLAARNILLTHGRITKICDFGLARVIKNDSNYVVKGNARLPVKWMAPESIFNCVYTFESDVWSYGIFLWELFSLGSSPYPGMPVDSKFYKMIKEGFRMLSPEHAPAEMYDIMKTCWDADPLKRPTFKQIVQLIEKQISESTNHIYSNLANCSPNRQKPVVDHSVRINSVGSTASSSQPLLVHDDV

T7 sequence (Q05397 whole entry): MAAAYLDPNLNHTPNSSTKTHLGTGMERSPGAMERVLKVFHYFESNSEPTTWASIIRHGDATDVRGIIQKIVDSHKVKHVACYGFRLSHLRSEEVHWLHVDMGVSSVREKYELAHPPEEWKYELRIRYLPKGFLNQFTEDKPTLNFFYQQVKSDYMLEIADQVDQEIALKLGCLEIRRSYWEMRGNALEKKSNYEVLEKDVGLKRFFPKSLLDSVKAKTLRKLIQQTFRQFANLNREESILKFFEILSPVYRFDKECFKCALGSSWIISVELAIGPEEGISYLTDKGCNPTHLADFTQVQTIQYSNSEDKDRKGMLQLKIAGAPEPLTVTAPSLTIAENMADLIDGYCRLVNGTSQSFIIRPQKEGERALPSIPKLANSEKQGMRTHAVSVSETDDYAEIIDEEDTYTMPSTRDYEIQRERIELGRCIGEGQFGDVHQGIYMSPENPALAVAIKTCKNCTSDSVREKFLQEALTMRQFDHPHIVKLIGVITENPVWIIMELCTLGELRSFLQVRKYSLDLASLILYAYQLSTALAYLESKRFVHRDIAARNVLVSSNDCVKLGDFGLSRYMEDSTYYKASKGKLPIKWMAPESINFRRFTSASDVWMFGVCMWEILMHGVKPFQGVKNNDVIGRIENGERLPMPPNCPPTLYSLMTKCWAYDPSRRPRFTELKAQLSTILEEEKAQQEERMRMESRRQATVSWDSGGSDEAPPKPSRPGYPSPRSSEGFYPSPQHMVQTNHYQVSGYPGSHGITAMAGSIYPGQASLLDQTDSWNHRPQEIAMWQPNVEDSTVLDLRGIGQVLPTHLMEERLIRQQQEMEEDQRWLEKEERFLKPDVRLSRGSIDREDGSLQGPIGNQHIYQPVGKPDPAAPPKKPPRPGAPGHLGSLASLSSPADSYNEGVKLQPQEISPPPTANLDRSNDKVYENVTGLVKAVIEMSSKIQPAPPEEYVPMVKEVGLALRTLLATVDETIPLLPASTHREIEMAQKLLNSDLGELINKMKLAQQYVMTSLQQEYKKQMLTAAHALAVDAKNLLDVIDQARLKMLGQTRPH
T3 sequence (P42684 whole entry): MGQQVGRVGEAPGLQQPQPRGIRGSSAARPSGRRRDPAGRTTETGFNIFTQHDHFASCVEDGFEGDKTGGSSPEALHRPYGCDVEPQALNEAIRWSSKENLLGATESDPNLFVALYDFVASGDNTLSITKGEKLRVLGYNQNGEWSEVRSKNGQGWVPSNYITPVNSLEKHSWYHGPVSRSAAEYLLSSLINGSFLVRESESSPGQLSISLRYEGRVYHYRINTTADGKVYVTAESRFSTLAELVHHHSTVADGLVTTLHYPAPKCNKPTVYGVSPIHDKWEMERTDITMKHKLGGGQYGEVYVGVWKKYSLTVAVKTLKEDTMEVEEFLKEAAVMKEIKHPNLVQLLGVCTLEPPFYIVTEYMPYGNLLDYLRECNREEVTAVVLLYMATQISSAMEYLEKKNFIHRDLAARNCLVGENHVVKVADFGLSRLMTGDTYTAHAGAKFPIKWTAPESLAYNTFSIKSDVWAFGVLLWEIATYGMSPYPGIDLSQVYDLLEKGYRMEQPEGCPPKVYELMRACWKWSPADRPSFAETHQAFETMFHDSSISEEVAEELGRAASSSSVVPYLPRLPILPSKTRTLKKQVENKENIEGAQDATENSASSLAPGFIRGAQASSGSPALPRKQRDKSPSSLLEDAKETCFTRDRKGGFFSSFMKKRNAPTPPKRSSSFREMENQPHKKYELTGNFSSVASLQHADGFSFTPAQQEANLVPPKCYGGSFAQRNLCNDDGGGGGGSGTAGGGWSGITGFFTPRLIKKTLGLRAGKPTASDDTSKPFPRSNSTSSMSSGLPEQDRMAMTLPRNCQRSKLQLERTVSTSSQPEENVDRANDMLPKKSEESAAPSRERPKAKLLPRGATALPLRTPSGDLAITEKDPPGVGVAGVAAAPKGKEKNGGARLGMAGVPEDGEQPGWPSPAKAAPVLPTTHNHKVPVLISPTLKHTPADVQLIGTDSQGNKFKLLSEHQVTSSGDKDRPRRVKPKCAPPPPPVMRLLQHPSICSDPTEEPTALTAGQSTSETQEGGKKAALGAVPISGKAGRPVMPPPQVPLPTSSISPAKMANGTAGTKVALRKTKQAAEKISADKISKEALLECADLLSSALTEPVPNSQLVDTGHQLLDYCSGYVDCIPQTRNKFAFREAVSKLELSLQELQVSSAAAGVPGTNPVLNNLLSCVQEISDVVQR

Compound: Cn1ncc(Cl)c1-c1cc(C(=O)N[C@H](CN)Cc2cccc(F)c2)sc1Cl [GSK2110183]
- inhibition at 0.5 µM (WNK2(h)): 1%
- inhibition at 10 µM (WNK2(h)): 26%
- inhibition at 0.5 µM (GCK(h)): -1%
- inhibition at 10 µM (GCK(h)): 10%
- inhibition at 0.5 µM (Arg(h)): -3%
- inhibition at 10 µM (Arg(h)): -1%
- inhibition at 0.5 µM (PKD2(h)): 11%
- inhibition at 10 µM (PKD2(h)): 56%
- inhibition at 0.5 µM (PKA(h)): 94%
- inhibition at 10 µM (PKA(h)): 96%
- inhibition at 0.5 µM (CaMKIV(h)): -15%
- inhibition at 10 µM (CaMKIV(h)): 0%
- inhibition at 0.5 µM (FAK(h)): 1%
- inhibition at 10 µM (FAK(h)): 39%
- inhibition at 0.5 µM (cKit(D816V)(h)): 0%
- inhibition at 10 µM (cKit(D816V)(h)): 9%

Compound: Cn1ncc(Cl)c1-c1cc(C(=O)N[C@H](CN)Cc2ccc(F)c(F)c2)oc1Cl [GSK2141795]
- inhibition at 0.5 µM (WNK2(h); 0.5 µM, read-out: % Inhibition): -12%
- inhibition at 10 µM (WNK2(h); 10 µM, read-out: % Inhibition): 3%
- inhibition at 0.5 µM (GCK(h); 0.5 µM, read-out: % Inhibition): -13%
- inhibition at 10 µM (GCK(h); 10 µM, read-out: % Inhibition): 7%
- inhibition at 0.5 µM (Arg(h); 0.5 µM, read-out: % Inhibition): -13%
- inhibition at 10 µM (Arg(h); 10 µM, read-out: % Inhibition): -17%
- inhibition at 0.5 µM (PKD2(h); 0.5 µM, read-out: % Inhibition): 17%
- inhibition at 10 µM (PKD2(h); 10 µM, read-out: % Inhibition): 66%
- inhibition at 0.5 µM (PKA(h); 0.5 µM, read-out: % Inhibition): 99%
- inhibition at 10 µM (PKA(h); 10 µM, read-out: % Inhibition): 97%
- inhibition at 0.5 µM (CaMKIV(h); 0.5 µM, read-out: % Inhibition): -18%
- inhibition at 10 µM (CaMKIV(h); 10 µM, read-out: % Inhibition): -21%
- inhibition at 0.5 µM (FAK(h); 0.5 µM, read-out: % Inhibition): -3%
- inhibition at 10 µM (FAK(h); 10 µM, read-out: % Inhibition): 5%
- inhibition at 0.5 µM (cKit(D816V)(h); 0.5 µM, read-out: % Inhibition): -17%
- inhibition at 10 µM (cKit(D816V)(h); 10 µM, read-out: % Inhibition): -16%
